Measured values as given in ChEMBL document CHEMBL1201862, “PubChem BioAssay data set” (2004).
Active and inactive are the calls of the source.

What was measured:
[1] = molecular target: Phosphoethanolamine/phosphocholine phosphatase (Homo sapiens, UniProt Q8TCT1); assay: SAR assay for compounds that inhibit PHOSPHO1. [Related pubchem assays (depositor defined):AID1545, AID1565, AID1574]
[2] = molecular target: T1, Alkaline phosphatase, tissue-nonspecific isozyme (Homo sapiens, UniProt P05186); assay: human TNAP enzyme inhibitors, SAR follow-up, biochemical, luminescent, dose response (AID 1056)
T1 sequence (P05186 whole entry): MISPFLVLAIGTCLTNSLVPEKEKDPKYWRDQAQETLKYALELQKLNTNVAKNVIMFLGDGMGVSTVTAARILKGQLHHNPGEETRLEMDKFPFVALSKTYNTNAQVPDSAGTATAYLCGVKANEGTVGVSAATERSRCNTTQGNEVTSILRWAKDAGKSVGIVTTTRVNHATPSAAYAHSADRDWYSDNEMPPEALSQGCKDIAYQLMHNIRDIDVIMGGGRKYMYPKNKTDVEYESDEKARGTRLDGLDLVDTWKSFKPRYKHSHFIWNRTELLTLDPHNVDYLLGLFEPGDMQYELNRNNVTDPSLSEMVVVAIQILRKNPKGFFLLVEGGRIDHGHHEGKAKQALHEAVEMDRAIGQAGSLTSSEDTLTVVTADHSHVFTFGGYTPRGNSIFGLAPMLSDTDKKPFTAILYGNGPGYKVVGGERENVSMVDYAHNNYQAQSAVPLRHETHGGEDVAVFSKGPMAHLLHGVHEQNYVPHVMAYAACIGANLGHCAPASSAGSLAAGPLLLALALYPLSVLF

[3] = molecular target: T2, Mannose-6-phosphate isomerase (Homo sapiens, UniProt P34949); assay: PMI enzyme inhibitors, confirmation, biochemical, fluorescence intensity (AID 1535)
T2 sequence (P34949 whole entry): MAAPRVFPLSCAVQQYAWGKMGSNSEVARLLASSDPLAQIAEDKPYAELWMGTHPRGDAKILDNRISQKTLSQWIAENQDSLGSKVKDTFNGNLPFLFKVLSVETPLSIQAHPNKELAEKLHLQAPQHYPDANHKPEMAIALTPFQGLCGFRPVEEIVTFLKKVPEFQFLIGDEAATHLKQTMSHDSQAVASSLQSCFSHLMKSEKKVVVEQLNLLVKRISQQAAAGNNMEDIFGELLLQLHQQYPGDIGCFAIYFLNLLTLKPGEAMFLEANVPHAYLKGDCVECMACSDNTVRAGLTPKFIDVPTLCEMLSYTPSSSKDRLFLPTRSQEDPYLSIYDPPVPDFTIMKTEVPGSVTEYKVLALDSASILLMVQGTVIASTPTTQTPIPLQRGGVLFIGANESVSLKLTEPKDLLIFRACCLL

Phosphomannomutase 2 = Phosphomannomutase 2 (Homo sapiens, UniProt O15305); assay: Counter screen SAR assay for PMM2 inhibitors via a fluorescence intensity assay. [Related pubchem assays (depositor defined):AID1545, AID1574]
Phosphomannomutase 2, sequence (O15305 whole entry): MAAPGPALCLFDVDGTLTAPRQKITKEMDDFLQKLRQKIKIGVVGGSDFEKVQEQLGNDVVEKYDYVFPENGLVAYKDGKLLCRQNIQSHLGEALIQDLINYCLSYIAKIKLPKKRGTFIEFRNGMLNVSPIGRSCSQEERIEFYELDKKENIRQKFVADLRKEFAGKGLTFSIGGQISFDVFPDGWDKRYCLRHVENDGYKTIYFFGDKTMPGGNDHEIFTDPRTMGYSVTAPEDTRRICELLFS

[4] = Counterscreen for AddAB inhibitors: absorbance-based bacterial cell-based high throughput dose response assay for inhibitors of bacterial viability. [Related pubchem assays (depositor defined):AID435030, AID449728, AID449731, AID488942, AID488955, AID488956]; assay type: functional
Exodeoxyribonuclease V = Exodeoxyribonuclease V (Escherichia coli (strain K12), UniProt P04993+P07648+P08394); assay: E. coli RecBCD inhibitors, dose response, counter-screen for AddAB inhibitor project, absorbance, V66 E. coli, mutant T4 phage (AID 492957); assay type: functional, cell-based, Escherichia coli str. K-12 substr. MG1655
Exodeoxyribonuclease V, sequence (P04993 whole entry): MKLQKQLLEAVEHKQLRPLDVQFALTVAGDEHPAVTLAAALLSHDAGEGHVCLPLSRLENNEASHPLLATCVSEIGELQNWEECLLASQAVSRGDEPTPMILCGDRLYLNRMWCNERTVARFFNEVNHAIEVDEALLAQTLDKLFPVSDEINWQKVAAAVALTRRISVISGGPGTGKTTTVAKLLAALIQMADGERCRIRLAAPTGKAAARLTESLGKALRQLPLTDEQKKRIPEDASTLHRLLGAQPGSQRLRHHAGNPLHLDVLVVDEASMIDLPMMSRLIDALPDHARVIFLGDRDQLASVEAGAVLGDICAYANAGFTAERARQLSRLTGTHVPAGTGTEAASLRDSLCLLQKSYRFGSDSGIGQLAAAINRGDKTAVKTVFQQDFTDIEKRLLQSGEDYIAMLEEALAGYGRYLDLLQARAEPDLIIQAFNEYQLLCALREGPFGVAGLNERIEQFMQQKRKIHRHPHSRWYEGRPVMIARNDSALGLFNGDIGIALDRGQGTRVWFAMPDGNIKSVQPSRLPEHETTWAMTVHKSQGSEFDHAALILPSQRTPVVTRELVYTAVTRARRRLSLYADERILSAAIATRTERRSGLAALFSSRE
Exodeoxyribonuclease V, sequence (P07648 whole entry): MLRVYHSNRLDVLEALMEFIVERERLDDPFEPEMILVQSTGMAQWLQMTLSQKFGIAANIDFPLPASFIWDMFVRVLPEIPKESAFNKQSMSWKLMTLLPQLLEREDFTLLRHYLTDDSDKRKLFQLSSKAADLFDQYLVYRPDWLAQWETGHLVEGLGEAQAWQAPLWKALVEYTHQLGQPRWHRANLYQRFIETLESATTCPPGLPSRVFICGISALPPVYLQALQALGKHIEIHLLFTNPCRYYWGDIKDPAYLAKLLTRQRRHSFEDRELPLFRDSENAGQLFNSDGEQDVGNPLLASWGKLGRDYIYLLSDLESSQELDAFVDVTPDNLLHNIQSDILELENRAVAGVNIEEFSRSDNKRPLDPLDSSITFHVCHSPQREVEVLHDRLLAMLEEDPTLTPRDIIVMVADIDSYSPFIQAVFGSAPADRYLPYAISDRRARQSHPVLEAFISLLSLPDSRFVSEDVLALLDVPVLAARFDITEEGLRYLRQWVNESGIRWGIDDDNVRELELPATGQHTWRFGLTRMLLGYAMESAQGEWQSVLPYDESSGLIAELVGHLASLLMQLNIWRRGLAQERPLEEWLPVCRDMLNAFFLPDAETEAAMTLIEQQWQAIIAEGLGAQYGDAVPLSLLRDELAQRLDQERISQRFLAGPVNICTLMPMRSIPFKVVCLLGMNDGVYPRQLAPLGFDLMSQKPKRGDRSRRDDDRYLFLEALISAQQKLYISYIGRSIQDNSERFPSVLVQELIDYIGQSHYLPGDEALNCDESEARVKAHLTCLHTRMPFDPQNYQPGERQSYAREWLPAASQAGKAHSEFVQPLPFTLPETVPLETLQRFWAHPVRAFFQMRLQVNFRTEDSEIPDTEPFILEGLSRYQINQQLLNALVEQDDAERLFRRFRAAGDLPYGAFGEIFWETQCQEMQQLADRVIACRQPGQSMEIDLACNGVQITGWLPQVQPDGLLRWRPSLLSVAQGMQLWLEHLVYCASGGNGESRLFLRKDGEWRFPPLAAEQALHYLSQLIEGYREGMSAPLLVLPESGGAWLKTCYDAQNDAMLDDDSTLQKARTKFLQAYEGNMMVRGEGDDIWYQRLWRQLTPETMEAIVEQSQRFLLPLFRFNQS
Exodeoxyribonuclease V, sequence (P08394 whole entry): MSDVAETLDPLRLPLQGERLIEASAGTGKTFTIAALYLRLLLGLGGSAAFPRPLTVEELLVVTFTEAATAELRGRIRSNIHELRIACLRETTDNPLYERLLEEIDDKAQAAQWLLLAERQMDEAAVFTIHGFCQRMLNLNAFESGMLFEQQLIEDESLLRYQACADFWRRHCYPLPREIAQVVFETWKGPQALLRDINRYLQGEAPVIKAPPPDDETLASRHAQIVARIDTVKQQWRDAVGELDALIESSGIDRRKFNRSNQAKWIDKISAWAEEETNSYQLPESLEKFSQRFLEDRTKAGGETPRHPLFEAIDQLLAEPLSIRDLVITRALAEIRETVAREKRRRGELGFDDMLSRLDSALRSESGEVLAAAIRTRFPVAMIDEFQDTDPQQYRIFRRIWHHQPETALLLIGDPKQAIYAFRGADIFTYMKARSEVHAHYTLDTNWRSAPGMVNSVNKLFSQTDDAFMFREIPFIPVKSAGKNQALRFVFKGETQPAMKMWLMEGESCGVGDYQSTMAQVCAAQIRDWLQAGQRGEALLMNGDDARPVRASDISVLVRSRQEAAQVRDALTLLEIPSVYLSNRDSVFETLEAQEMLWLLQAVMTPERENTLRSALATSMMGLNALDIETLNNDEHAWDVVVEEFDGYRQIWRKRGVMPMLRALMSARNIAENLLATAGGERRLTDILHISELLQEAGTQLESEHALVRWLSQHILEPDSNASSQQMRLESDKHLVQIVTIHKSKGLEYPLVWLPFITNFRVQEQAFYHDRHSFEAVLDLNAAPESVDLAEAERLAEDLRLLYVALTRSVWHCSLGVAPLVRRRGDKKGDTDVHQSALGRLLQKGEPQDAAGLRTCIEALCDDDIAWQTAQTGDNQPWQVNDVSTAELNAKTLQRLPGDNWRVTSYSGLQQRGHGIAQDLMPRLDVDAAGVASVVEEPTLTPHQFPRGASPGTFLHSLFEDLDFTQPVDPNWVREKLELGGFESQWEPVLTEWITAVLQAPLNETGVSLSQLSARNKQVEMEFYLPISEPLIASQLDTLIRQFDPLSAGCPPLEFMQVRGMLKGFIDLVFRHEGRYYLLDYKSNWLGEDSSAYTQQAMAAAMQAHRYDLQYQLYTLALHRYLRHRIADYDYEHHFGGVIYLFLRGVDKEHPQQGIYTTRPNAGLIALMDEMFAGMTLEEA

[5] = molecular target: T3, Replicative DNA helicase DnaB (Mycobacterium tuberculosis, UniProt P9WMR3); assay: DnaB intein splicing inhibitors, dose response, biochemical, cell-free fluorescence (AID 449749); assay type: functional
T3 sequence (P9WMR3 whole entry): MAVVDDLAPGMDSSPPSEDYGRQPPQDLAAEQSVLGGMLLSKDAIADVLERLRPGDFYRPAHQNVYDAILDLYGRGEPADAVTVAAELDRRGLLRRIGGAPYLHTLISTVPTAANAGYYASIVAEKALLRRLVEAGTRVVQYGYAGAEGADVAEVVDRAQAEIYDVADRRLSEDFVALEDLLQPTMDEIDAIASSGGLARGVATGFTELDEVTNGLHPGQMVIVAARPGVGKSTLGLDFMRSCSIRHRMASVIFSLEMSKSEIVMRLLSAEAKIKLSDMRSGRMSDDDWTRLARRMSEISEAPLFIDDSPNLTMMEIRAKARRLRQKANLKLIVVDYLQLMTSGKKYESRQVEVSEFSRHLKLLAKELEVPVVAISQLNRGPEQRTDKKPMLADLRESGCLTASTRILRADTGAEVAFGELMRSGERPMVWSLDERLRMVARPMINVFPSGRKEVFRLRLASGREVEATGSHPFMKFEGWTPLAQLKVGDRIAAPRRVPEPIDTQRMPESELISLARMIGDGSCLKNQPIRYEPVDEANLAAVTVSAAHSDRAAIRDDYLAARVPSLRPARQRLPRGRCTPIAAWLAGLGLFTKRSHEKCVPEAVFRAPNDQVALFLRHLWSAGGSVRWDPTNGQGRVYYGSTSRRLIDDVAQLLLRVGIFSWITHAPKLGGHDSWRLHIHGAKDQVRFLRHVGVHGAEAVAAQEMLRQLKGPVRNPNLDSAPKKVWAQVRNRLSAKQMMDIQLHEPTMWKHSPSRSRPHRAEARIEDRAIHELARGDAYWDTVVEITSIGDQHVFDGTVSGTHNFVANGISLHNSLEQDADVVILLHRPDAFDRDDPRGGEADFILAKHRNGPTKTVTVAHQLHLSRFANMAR

[6] = molecular target: T4, Polyadenylate-binding protein 1 (Homo sapiens, UniProt P11940); assay: PABP1 MLLE–PAM2 interaction inhibitors, dose response, miRNA deadenylation inhibitor project, biochemical, fluorescence polarization, Cy5-PAM2 peptide, secondary (AID 602260); assay type: functional; conditions: read-out: IC50_Mean
T4 sequence (P11940 whole entry): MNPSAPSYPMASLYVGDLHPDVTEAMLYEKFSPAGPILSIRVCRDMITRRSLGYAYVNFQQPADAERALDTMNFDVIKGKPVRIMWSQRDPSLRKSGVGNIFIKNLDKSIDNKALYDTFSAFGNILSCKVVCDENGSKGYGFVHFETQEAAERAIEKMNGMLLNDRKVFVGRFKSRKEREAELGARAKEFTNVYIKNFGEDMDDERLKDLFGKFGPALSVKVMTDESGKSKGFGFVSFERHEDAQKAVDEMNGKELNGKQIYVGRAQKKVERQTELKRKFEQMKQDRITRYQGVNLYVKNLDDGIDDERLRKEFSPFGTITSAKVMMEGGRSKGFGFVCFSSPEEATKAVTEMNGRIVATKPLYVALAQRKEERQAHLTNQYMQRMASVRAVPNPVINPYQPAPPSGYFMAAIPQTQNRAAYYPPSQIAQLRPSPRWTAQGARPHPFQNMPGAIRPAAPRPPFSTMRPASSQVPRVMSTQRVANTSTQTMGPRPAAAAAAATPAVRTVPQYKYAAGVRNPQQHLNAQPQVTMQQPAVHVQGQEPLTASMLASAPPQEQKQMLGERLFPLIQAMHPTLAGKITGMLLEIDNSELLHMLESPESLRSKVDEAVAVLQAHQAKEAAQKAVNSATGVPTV

[7] = molecular target: Female germline-specific tumor suppressor gld-1 (Caenorhabditis elegans, UniProt Q17339); assay: inhibitors of GLD-1 binding to TGE RNA, dose response, biochemical, fluorescence polarization, C. elegans (AID 2802);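 further: fluorescence polarization of labeled TGE RNA bound by purified gld-1 protein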
[8] = molecular target: Eukaryotic translation initiation factor 4E (Mus musculus, UniProt P63073); assay: eIF4E–eIF4G protein interaction inhibitors, dose response, biochemical, TR-FRET (AID 855); assay type: functional;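 further: potency for disrupting eIF4E binding to eIF4GI seen as loss of FRET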
Eukaryotic translation initiation factor 4E, sequence (P63073 whole entry): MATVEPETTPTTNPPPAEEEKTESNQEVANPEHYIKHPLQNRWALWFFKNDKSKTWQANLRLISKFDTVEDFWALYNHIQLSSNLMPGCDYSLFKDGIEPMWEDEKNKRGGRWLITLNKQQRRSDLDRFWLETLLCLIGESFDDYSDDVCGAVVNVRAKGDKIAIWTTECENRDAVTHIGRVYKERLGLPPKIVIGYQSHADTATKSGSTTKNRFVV

Protein Rev = Protein Rev (Human immunodeficiency virus type 1 group M subtype B (isolate HXB2)(HIV-1), UniProt P04618); assay: inhibitors of Rev binding to RRE RNA, dose response, biochemical, fluorescence polarization, HIV-1 (AID 434976); design: species or system Human immunodeficiency virus 1
Protein Rev, sequence (P04618 whole entry): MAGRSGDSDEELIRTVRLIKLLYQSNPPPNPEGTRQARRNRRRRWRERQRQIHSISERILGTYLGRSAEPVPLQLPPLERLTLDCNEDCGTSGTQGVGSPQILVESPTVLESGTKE

[9] = molecular target: Induced myeloid leukemia cell differentiation protein Mcl-1 (Homo sapiens, UniProt Q07820); assay type: functional
Induced myeloid leukemia cell differentiation protein Mcl-1, sequence (Q07820 whole entry): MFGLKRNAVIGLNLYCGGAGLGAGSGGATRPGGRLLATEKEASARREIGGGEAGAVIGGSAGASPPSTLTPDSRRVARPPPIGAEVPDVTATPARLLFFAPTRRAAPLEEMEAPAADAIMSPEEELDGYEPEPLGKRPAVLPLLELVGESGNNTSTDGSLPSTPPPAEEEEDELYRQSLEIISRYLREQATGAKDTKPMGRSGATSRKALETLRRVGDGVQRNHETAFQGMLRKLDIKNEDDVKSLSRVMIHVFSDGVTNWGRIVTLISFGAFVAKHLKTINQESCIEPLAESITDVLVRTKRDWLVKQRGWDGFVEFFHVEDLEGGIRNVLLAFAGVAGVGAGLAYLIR

[10] = molecular target: E3 ubiquitin-protein ligase XIAP (Homo sapiens, UniProt P98170); assay: Counter Screen using XIAP-Bir3 for Chemical Antagonists of Bir1/2 domains of IAP-family anti-apoptotic proteins. [Related pubchem assays (depositor defined):AID1018, AID1449, AID1514, AID1638, AID1749, AID1750, AID488957, AID488963]
Protein RecA = molecular target: T5, Protein RecA (Mycobacterium tuberculosis, UniProt P9WHJ3); assay: Fluorescence Cell-Free Homogeneous Dose Retest to Identify Inhibitors of RecA-Intein Splicing Activity. [Related pubchem assays (depositor defined):AID2097, AID2223, AID489010, AID492950]; assay type: functional
T5 sequence (P9WHJ3 whole entry): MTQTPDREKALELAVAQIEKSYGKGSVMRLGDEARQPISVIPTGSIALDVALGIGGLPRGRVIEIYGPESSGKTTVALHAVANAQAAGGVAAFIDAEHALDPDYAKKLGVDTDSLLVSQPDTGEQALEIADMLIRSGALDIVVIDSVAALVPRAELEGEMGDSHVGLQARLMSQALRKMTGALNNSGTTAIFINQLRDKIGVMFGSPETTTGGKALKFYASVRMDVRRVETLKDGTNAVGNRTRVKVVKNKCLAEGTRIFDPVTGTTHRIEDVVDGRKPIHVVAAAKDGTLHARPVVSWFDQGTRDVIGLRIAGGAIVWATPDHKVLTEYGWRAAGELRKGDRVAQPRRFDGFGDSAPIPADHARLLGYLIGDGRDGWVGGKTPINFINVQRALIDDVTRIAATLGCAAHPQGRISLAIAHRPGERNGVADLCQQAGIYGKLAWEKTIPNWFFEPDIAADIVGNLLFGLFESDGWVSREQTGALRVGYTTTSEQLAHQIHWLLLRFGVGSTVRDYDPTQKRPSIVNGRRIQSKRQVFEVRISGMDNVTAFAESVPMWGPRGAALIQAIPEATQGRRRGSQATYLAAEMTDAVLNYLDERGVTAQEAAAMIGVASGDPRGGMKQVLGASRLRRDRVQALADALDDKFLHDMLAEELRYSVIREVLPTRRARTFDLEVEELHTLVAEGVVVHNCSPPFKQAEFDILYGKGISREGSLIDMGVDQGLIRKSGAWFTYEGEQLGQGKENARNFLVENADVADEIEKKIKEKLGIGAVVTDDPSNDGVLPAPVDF

[11] = molecular target: T4, Polyadenylate-binding protein 1; assay: PABP1 MLLE–PAM2 binding inhibitor potency, dose response, biochemical, fluorescence polarization, FITC-PAM2 peptide (AID 602259); assay type: functional; conditions: read-out: IC50_Mean

Phosphoethanolamine/phosphocholine phosphatase, sequence (Q8TCT1 whole entry): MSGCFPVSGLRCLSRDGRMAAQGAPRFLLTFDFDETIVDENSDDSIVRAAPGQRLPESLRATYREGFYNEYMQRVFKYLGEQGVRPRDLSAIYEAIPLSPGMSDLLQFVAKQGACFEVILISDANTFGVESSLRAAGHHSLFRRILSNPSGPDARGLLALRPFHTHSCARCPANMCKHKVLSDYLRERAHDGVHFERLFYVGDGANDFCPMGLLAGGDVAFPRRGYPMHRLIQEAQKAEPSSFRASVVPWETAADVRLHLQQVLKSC

Structure (SMILES): CCN(CC)S(=O)(=O)c1cccc(-n2sc3ccccc3c2=O)c1
- IC50 [1]: 0.555 µM (active)
- IC50 [2]: > 100 µM (inactive)
- IC50 [3]: 61.9 µM (active)
- IC50 (Phosphomannomutase 2): > 100 µM (inactive)

Structure (SMILES): Cc1ccc(-n2sc3c4c(ccc3c2=O)C(=O)c2ccccc2C4=O)cc1
- IC50 [1]: 2.02 µM (inactive)
- IC50 [3]: > 50 µM (inactive)
- IC50 (Phosphomannomutase 2): > 100 µM (inactive)

Structure (SMILES): CC(=O)N(/N=C/c1ccc([N+](=O)[O-])o1)c1nc2ccccc2c(=O)n1-c1ccccc1
- IC50 [4]: 45.9 µM (inactive)
- IC50 (Exodeoxyribonuclease V): > 119 µM (inactive)

Structure (SMILES): Nc1ccc(O)c2c1C(=O)c1ccccc1C2=O
- AC50 [5]: 79.2 µM (active)
- IC50 [6]: > 66 µM (inactive)
- IC50 [7]: 3.05 µM (active)
- IC50 [8]: 25.7 µM (active)
- IC50 (Protein Rev): > 75.4 µM (not active)
- IC50 [9]: 4.35 µM (active)
- IC50 [10]: < 0.313 µM (active)
- EC50 (Protein RecA): 39 µM (active)
- IC50 [11]: 24.3 µM (inactive)
